Results: US20060258598A1, “Alpha-keto carbonyl calpain inhibitors” (priority 2003, published 2006)

Experiments:
[1] = tested on: cellular calpains in C2C12 myoblasts; assay: Calpain inhibition assay in C2C12 myoblasts; format: cell-based; conditions: 2 h incubation, calcium ionophore Br-A-23187, read-out: Calp I IC50 Myoblast
Summary of the method: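 Confluent C2C12 myoblasts in fusion medium (DMEM, 5% horse serum) exposed to compound for 2 h at 37 °C, then loaded with 400 μM Suc-Leu-Tyr-AMC for 20 min at room temperature in buffer with 4 mM CaCl2, HEPES pH 7.25. Calpains activated by Br-A-23187 ionophore (20 μM in added buffer); AMC fluorescence read each minute for 60 min at 37 °C to derive IC50.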

20S Proteasome = target: T1, 20S Proteasome (Oryctolagus cuniculus, UniProt G1T4Q9); assay: 20S Proteasome assay; format: biochemical, Rabbit; conditions: substrate Suc-Leu-Leu-Val-Tyr-AMC; read-out: 20S Prot IC50
T1 sequence (G1T4Q9 1-263): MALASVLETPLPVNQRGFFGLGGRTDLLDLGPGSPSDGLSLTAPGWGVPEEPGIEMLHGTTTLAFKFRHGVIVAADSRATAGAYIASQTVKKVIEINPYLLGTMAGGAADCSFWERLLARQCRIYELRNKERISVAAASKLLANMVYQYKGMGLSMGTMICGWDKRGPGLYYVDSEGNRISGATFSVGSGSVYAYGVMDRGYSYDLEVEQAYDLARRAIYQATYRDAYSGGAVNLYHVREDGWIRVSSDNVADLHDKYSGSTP
Method: 25 μl of a reaction buffer containing 400 μM of the fluorogenic substrate Suc-Leu-Leu-Val-Tyr-AMC (Bachem) are dispensed per well of a white microtiter plate. Test compounds dissolved in 0.5 μl DMSO are added. To start the reaction; 25 μl of reaction buffer containing 35 ng of enzyme (20S Proteasome, Rabbit, Calbiochem) are added. The increase in fluorescence (excitation at 360 nm; emission at 440 nm) is measured over 30 min at 30° C. at 30″. The IC50's are then determined from the slopes.

mdx mouse = assay: Longterm treatment of mdx mice (model for Duchenne Muscular Dystrophy); format: in vivo; conditions: 10 mg/kg/day i.p., 4 weeks, vs vehicle mdx mice
Method: The mdx mouse is a well established animal model for Duchenne Muscular Dystrophy (Bulfield G., Siller W. G., Wight P. A., Moore K. J., X chromosome-linked muscular dystrophy (mdx) in the mouse, Proc. Natl. Acad. Sci. USA., 1984, 81(4), 1189-1192). Selected compounds were tested in longterm treatments of mdx mice, according to the procedures described below.
Mouse strains: C57BL/10scsn and C57BL/10scsn mdx mouse strains were purchased at The Jackson Laboratory (ME, USA) and bred inhouse. Mouse males were sacrificed at the age of 3 or 7 weeks by CO2 asphyxiation.
Treatment: Compounds were dissolved in 50% PEG, 50% saline solution and applied by i.p. injection.
Histology: Tibialis anterior (TA) and diaphragm (Dia) muscles were collected and mounted on cork supports using gum tragacanth (Sigma-Aldrich, Germany). The samples were snap-frozen in melting isopentane and stored at −80° C. 12 μm thick cryosections of the mid-belly region of muscles were prepared. For staining, sections were air dried and fixed with 4% PFA in PBS for 5 minutes, washed 3 times with PBS and incubated over night at 4° C. in PBS containing 2 μg/ml Alexa Fluor™ 488 conjugated wheat-germ agglutinin (WGA-Alexa, Molecular Probes, Eugen, Oreg., USA) to stain membrane-bound and extracellular epitopes and 1 μg/ml 4′,6-diamidino-2-phenylindole (DAPI; Molecular Probes) to stain nuclei.
Image acquisition and analysis: Fluorescence microscopy images of both labels were acquired using a digital camera (ColorView II, Soft Imaging System, Munster, Germany) coupled to a fluorescence microscope (Vanox S, Olympus, Tokyo, Japan). Combination of these two stainings to a composite image, assembling of several images to a complete image of the entire muscle cross-section and further semi-automated analysis was performed using the image analysis program AnalySIS (Soft Imaging System). Image analysis of 1200-2900 muscle fibers in each section was performed in three steps: 1) determination of the muscle fiber boundaries, 2) determination of the muscle fiber size, and 3) determination of the percentage of muscle fibers containing centralized nuclei. Six different geometrical parameters were tested for the determination of the muscle fiber size: (a) the “minimal feret” (the minimum distance of parallel tangents at opposing borders of the muscle fiber), (b) the “area”, (c) the “minimal inner diameter” (the minimum diameter through the center of the muscle fiber), (d) the “minimal diameter” (the minimum diameter of a muscle fiber for angles in the range 0° through 179° with step width 1°, (e) the “minimal outer diameter” (the minimum diameter through the muscle fiber from outer border to outer border), and (f) the “perimeter”. The variance coefficient of the muscle fiber size is defined as follows: variance coefficient=(standard deviation of the muscle fiber size/mean of the muscle fiber size of the section)*1000. For statistical analysis of different variance coefficient values Mann-Whitney U test was used.
Selected Examples of the present invention were active in the mdx mouse model at 10 mg/kg/day, using 3 week old mice and a treatment period of 4 weeks (N=5−10).

- IC50 [1]: 500 nM
- IC50 (20S Proteasome): 40 nM
Compound: CCNC(=O)C(=O)[C@H](Cc1ccc(Br)cc1)NC(=O)[C@H](CC(C)C)NC(=O)CCCCC1CCSS1 (stereo partly drawn) [Example 64]
- decrease in the variance coefficient of the muscle fiber size (mdx mouse; Dia (diaphragm)): 29%
- reduction of percentage of centralized nuclei (mdx mouse; Dia (diaphragm)): 61%
- decrease in the variance coefficient of the muscle fiber size (mdx mouse; TA (tibialis anterior)): 43%
- reduction of percentage of centralized nuclei (mdx mouse; TA (tibialis anterior)): 28%
